Laboratory results published in ChEMBL document CHEMBL1201862, “PubChem BioAssay data set” (2004).
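Grown in 96-well plates, cells were treated for 48 hours with each compound at five concentrations. Insufficient inhibition: endpoint recorded as highest concentration tested. GI50 = concentration required for 50% inhibition of growth.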 Active and inactive are the calls of the source. Rule as the data show it: active = GI50 up to about 1.1 µM and inactive = higher.

Legend:
Experiment in all cases: NCI tumour cell line growth inhibition, 48 h
IGROV-1 = system: IGROV-1
NCI-H226 = system: NCI-H226
UACC-257 = system: UACC-257
SNB-19 = system: SNB-19
RXF 393 = system: RXF 393
CAKI-1 = system: CAKI-1
HT-29 = system: HT-29
CCRF-CEM = system: CCRF-CEM
SF-268 = system: SF-268
EKVX = system: EKVX
OVCAR-8 = system: OVCAR-8
PC-3 = system: PC-3
HCT-15 = system: HCT-15
U-251 = system: U-251
T47D = system: T47D
RPMI-8226 = system: RPMI-8226
DU-145 = system: DU-145
LOX IMVI = system: LOX IMVI
SK-MEL-2 = system: SK-MEL-2

O=C(C[C@@H]1CCCN2CCCC[C@H]12)N1c2ccccc2Sc2ccc(Cl)cc21
GI50 (IGROV-1): 12.6 µM (inactive) | GI50 (NCI-H226): 27.6 µM (inactive) | GI50 (UACC-257): 11.6 µM (inactive) | GI50 (SNB-19): 16.1 µM (inactive) | GI50 (RXF 393): 13.6 µM (inactive) | GI50 (CAKI-1): 14.4 µM (inactive) | GI50 (HT-29): 10.6 µM (inactive) | GI50 (CCRF-CEM): 15 µM (inactive) | GI50 (SF-268): 19.2 µM (inactive) | GI50 (EKVX): 19.1 µM (inactive) | GI50 (OVCAR-8): 19.3 µM (inactive) | GI50 (PC-3): 13.2 µM (inactive) | GI50 (HCT-15): 15.7 µM | GI50 (U-251): 12.1 µM (inactive) | GI50 (T47D): 20.5 µM (inactive) | GI50 (RPMI-8226): 20.2 µM (inactive) | GI50 (DU-145): 14 µM (inactive) | GI50 (LOX IMVI): 13.7 µM (inactive)

CCOC(=O)C(NCc1ccccc1)(NC(=O)c1ccccc1)C(F)(F)F (stereo not drawn)
GI50 (IGROV-1): > 100 µM (inactive) | GI50 (NCI-H226): > 100 µM (inactive) | GI50 (UACC-257): 90.4 µM (inactive) | GI50 (SNB-19): > 100 µM (inactive) | GI50 (RXF 393): 64.7 µM (inactive) | GI50 (CAKI-1): > 100 µM (inactive) | GI50 (HT-29): > 100 µM (inactive) | GI50 (SK-MEL-2): > 100 µM (inactive) | GI50 (CCRF-CEM): 24.2 µM (inactive) | GI50 (SF-268): > 100 µM (inactive) | GI50 (EKVX): 82.4 µM (inactive) | GI50 (OVCAR-8): 98.9 µM (inactive) | GI50 (PC-3): > 100 µM (inactive) | GI50 (HCT-15): 78.3 µM | GI50 (U-251): > 100 µM (inactive) | GI50 (T47D): 38.5 µM (inactive) | GI50 (RPMI-8226): 33.3 µM (inactive) | GI50 (DU-145): > 100 µM (inactive) | GI50 (LOX IMVI): 95.1 µM (inactive)

COc1ccc2nc3cccc([N+](=O)[O-])c3c(NCCN(C)C)c2c1
GI50 (IGROV-1): 0.167 µM (active) | GI50 (NCI-H226): 0.207 µM (active) | GI50 (UACC-257): 0.191 µM (active) | GI50 (SNB-19): 0.282 µM (active) | GI50 (RXF 393): 0.0851 µM (active) | GI50 (CAKI-1): 0.18 µM (active) | GI50 (HT-29): 0.0573 µM (active) | GI50 (SK-MEL-2): 0.127 µM (active) | GI50 (CCRF-CEM): 0.16 µM (active) | GI50 (SF-268): 0.145 µM (active) | GI50 (EKVX): 0.186 µM (active) | GI50 (OVCAR-8): 0.0638 µM (active) | GI50 (PC-3): 0.108 µM (active) | GI50 (HCT-15): 0.0716 µM | GI50 (U-251): 0.149 µM (active) | GI50 (T47D): 0.146 µM (active) | GI50 (RPMI-8226): 0.0318 µM (active) | GI50 (DU-145): 0.0223 µM (active) | GI50 (LOX IMVI): 0.0325 µM (active)

CC(C)(SCc1ccccc1)C(N)C(=O)O (stereo not drawn)
GI50 (IGROV-1): > 100 µM (inactive) | GI50 (NCI-H226): > 100 µM (inactive) | GI50 (UACC-257): > 100 µM (inactive) | GI50 (SNB-19): > 100 µM (inactive) | GI50 (RXF 393): > 100 µM (inactive) | GI50 (CAKI-1): > 100 µM (inactive) | GI50 (HT-29): > 100 µM (inactive) | GI50 (SK-MEL-2): > 100 µM (inactive) | GI50 (CCRF-CEM): > 100 µM (inactive) | GI50 (SF-268): > 100 µM (inactive) | GI50 (EKVX): > 100 µM (inactive) | GI50 (OVCAR-8): > 100 µM (inactive) | GI50 (PC-3): > 100 µM (inactive) | GI50 (HCT-15): > 100 µM | GI50 (U-251): > 100 µM (inactive) | GI50 (T47D): > 100 µM (inactive) | GI50 (RPMI-8226): > 100 µM (inactive) | GI50 (DU-145): > 100 µM (inactive) | GI50 (LOX IMVI): > 100 µM (inactive)

CC1=CCC[C@H]2[C@](C)(CC3=CC(=O)C(SCC(C)C)=CC3=O)[C@@H](C)CC[C@]12C
GI50 (IGROV-1): 11 µM (inactive) | GI50 (NCI-H226): 11.8 µM (inactive) | GI50 (UACC-257): 17.3 µM (inactive) | GI50 (SNB-19): 18.3 µM (inactive) | GI50 (RXF 393): 9.68 µM (inactive) | GI50 (CAKI-1): 11.3 µM (inactive) | GI50 (HT-29): 15.4 µM (inactive) | GI50 (SK-MEL-2): 15.9 µM (inactive) | GI50 (CCRF-CEM): 1.79 µM (inactive) | GI50 (EKVX): 16.7 µM (inactive) | GI50 (OVCAR-8): 13.3 µM (inactive) | GI50 (PC-3): 15 µM (inactive) | GI50 (HCT-15): 15.1 µM | GI50 (U-251): 14.3 µM (inactive) | GI50 (T47D): 2.25 µM (inactive) | GI50 (RPMI-8226): 3.8 µM (inactive) | GI50 (DU-145): 14.7 µM (inactive) | GI50 (LOX IMVI): 7.41 µM (inactive)

Cn1/c(=N\S(=O)(=O)c2ccccc2)n(S(=O)(=O)c2ccccc2)c2ccccc21
GI50 (IGROV-1): > 100 µM (inactive) | GI50 (NCI-H226): 50.2 µM (inactive) | GI50 (UACC-257): > 100 µM (inactive) | GI50 (SNB-19): 89.3 µM (inactive) | GI50 (RXF 393): 95.5 µM (inactive) | GI50 (CAKI-1): > 100 µM (inactive) | GI50 (HT-29): 35.6 µM (inactive) | GI50 (SK-MEL-2): 34.4 µM (inactive) | GI50 (CCRF-CEM): 24.7 µM (inactive) | GI50 (SF-268): 54.1 µM (inactive) | GI50 (EKVX): 63.5 µM (inactive) | GI50 (OVCAR-8): 56.1 µM (inactive) | GI50 (PC-3): 29.5 µM (inactive) | GI50 (HCT-15): > 100 µM | GI50 (U-251): 34.7 µM (inactive) | GI50 (T47D): 40.6 µM (inactive) | GI50 (RPMI-8226): 48.1 µM (inactive) | GI50 (DU-145): 72.8 µM (inactive) | GI50 (LOX IMVI): > 100 µM (inactive)

CCc1cc2c(cc1C(=O)CCC(=O)O)CC1(C2)Cc2cc(CC)c(C(=O)CCC(=O)O)cc2C1
GI50 (IGROV-1): > 100 µM (inactive) | GI50 (NCI-H226): > 100 µM (inactive) | GI50 (UACC-257): > 100 µM (inactive) | GI50 (SNB-19): > 100 µM (inactive) | GI50 (RXF 393): > 100 µM (inactive) | GI50 (CAKI-1): > 100 µM (inactive) | GI50 (HT-29): > 100 µM (inactive) | GI50 (SK-MEL-2): 99.8 µM (inactive) | GI50 (CCRF-CEM): 32.2 µM (inactive) | GI50 (SF-268): 82.4 µM (inactive) | GI50 (EKVX): > 100 µM (inactive) | GI50 (OVCAR-8): > 100 µM (inactive) | GI50 (PC-3): > 100 µM (inactive) | GI50 (HCT-15): > 100 µM | GI50 (U-251): > 100 µM (inactive) | GI50 (T47D): > 100 µM (inactive) | GI50 (RPMI-8226): 63.1 µM (inactive) | GI50 (DU-145): > 100 µM (inactive) | GI50 (LOX IMVI): > 100 µM (inactive)

CCOC(=O)c1c(N2CCCC2)nsc1Nc1ccc(F)cc1
GI50 (IGROV-1): 55 µM (inactive) | GI50 (NCI-H226): 60.4 µM (inactive) | GI50 (UACC-257): 45.1 µM (inactive) | GI50 (SNB-19): > 100 µM (inactive) | GI50 (RXF 393): 13.6 µM (inactive) | GI50 (CAKI-1): 37.5 µM (inactive) | GI50 (HT-29): 23.6 µM (inactive) | GI50 (SK-MEL-2): 19.2 µM (inactive) | GI50 (CCRF-CEM): 28.1 µM (inactive) | GI50 (SF-268): 73.6 µM (inactive) | GI50 (EKVX): 8.38 µM (inactive) | GI50 (OVCAR-8): 41.4 µM (inactive) | GI50 (PC-3): 20.4 µM (inactive) | GI50 (HCT-15): 29.6 µM | GI50 (U-251): 41.9 µM (inactive) | GI50 (T47D): 9.57 µM (inactive) | GI50 (RPMI-8226): 36.6 µM (inactive) | GI50 (DU-145): 45.3 µM (inactive) | GI50 (LOX IMVI): 53.7 µM (inactive)

c1ccc(-c2nc3ccccc3n3nnnc23)cc1
GI50 (IGROV-1): > 100 µM (inactive) | GI50 (NCI-H226): > 100 µM (inactive) | GI50 (UACC-257): > 100 µM (inactive) | GI50 (SNB-19): 75.7 µM (inactive) | GI50 (RXF 393): 52.1 µM (inactive) | GI50 (HT-29): > 100 µM (inactive) | GI50 (SK-MEL-2): > 100 µM (inactive) | GI50 (CCRF-CEM): > 100 µM (inactive) | GI50 (SF-268): 75.7 µM (inactive) | GI50 (EKVX): 11.5 µM (inactive) | GI50 (PC-3): > 100 µM (inactive) | GI50 (HCT-15): > 100 µM | GI50 (U-251): > 100 µM (inactive) | GI50 (T47D): 20.2 µM (inactive) | GI50 (RPMI-8226): > 100 µM (inactive) | GI50 (DU-145): > 100 µM (inactive) | GI50 (LOX IMVI): > 100 µM (inactive)

CC(=O)Nc1sccc1S(=O)(=O)c1ccc(Cl)cc1
GI50 (IGROV-1): > 100 µM (inactive) | GI50 (NCI-H226): > 100 µM (inactive) | GI50 (UACC-257): > 100 µM (inactive) | GI50 (SNB-19): > 100 µM (inactive) | GI50 (RXF 393): > 100 µM (inactive) | GI50 (CAKI-1): > 100 µM (inactive) | GI50 (HT-29): > 100 µM (inactive) | GI50 (SK-MEL-2): > 100 µM (inactive) | GI50 (CCRF-CEM): > 100 µM (inactive) | GI50 (SF-268): > 100 µM (inactive) | GI50 (EKVX): > 100 µM (inactive) | GI50 (OVCAR-8): > 100 µM (inactive) | GI50 (PC-3): > 100 µM (inactive) | GI50 (HCT-15): > 100 µM | GI50 (U-251): > 100 µM (inactive) | GI50 (T47D): > 100 µM (inactive) | GI50 (RPMI-8226): > 100 µM (inactive) | GI50 (DU-145): > 100 µM (inactive)

C=CCO[C@]1(CC=C)C(=O)C(=O)OC1C1COC(C)(C)O1 (stereo partly drawn)
GI50 (IGROV-1): > 100 µM (inactive) | GI50 (NCI-H226): > 100 µM (inactive) | GI50 (UACC-257): 30 µM (inactive) | GI50 (SNB-19): > 100 µM (inactive) | GI50 (RXF 393): 19.8 µM (inactive) | GI50 (CAKI-1): 27.1 µM (inactive) | GI50 (HT-29): 19.8 µM (inactive) | GI50 (CCRF-CEM): 29.4 µM (inactive) | GI50 (SF-268): 26.6 µM (inactive) | GI50 (EKVX): > 100 µM (inactive) | GI50 (OVCAR-8): 29.2 µM (inactive) | GI50 (PC-3): 44.6 µM (inactive) | GI50 (HCT-15): 21.1 µM | GI50 (U-251): 72.3 µM (inactive) | GI50 (T47D): 34.8 µM (inactive) | GI50 (RPMI-8226): 25.9 µM (inactive) | GI50 (DU-145): > 100 µM (inactive) | GI50 (LOX IMVI): 16.9 µM (inactive)
